pEC50: −log10 of the molar value.

The assay deals with AMPK. As to the kind of experiment: AMPK activation, enzyme-linked immunosorbent assay. It is filed as biochemical. The conditions noted are these: compounds of Table 1 (Table 6). Here is the method: Compounds of Table 1 were assayed for their ability to activate AMPK using an enzyme-linked immunosorbent assay.
Compounds of Table 2 were assayed for their ability to activate AMPK using an enzyme-linked immunosorbent assay.
Compounds of Table 3 were assayed for their ability to activate AMPK using an enzyme-linked immunosorbent assay.
Compounds of Table 4 were assayed for their ability to activate AMPK using an enzyme-linked immunosorbent assay.
Compounds of Table 5 were assayed for their ability to activate AMPK using an enzyme-linked immunosorbent assay.
As to `Cc1c(C(=O)NC2CCN(Cc3ccccc3C#N)CC2)oc2cc(OC3CCN(c4ccc(C(F)(F)F)cc4)CC3)ccc12` [1-67, N-(1-(2-cyanobenzyl)piperidin-4-yl)-3-methyl-6-(1-(4-(trifluoromethyl)phenyl)piperidin-4-yloxy)benzofuran-2-carboxamide], the pEC50 was greater than 7.00.

`Cc1c(C(=O)NC2CCN(Cc3ccccn3)CC2)oc2cc(OC3CCN(c4ccc(C(F)(F)F)cc4)CC3)ccc12` [1-68, 3-methyl-N-(1-(pyridin-2-ylmethyl)piperidin-4-yl)-6-(1-(4-(trifluoromethyl)phenyl)piperidin-4-yloxy)benzofuran-2-carboxamide] had a pEC50 greater than 7.00.

Consider `Cc1c(C(=O)NC2CCN(Cc3cccnc3)CC2)oc2cc(OC3CCN(c4ccc(C(F)(F)F)cc4)CC3)ccc12` [1-69, 3-methyl-N-(1-(pyridin-3-ylmethyl)piperidin-4-yl)-6-(1-(4-(trifluoromethyl)phenyl)piperidin-4-yloxy)benzofuran-2-carboxamide], for which the negative logarithm of the EC50 (pEC50) is greater than 7.00. Take `N#Cc1ccc(CN2CCC(Oc3ccc4oc(C(=O)NC5CCN(Cc6ccccc6)CC5)cc4c3)CC2)cc1` [1-70, N-(1-benzylpiperidin-4-yl)-5-(1-(4-cyanobenzyl)piperidin-4-yloxy)benzofuran-2-carboxamide]: the pEC50 was greater than 7.00. With `N#Cc1ccc(N2CCC(Oc3ccc4oc(C(=O)NC5CCN(Cc6ccccc6)CC5)cc4c3)CC2)cc1` [1-71, N-(1-benzylpiperidin-4-yl)-5-(1-(4-cyanophenyl)piperidin-4-yloxy)benzofuran-2-carboxamide] the figure was greater than 7.00; with `O=C(NC1CCN(Cc2ccccc2)CC1)c1cc2cc(OC3CCN(Cc4ccc(Cl)cc4)CC3)ccc2o1` [1-72, N-(1-benzylpiperidin-4-yl)-5-(1-(4-chlorobenzyl)piperidin-4-yloxy)benzofuran-2-carboxamide], 6.30 to 7.00. With `O=C(NC1CCN(Cc2ccccc2)CC1)c1cc2cc(OC3CCN(Cc4cccc(C(F)(F)F)c4)CC3)ccc2o1` [1-73, N-(1-benzylpiperidin-4-yl)-5-(1-(3-(trifluoromethyl)benzyl)piperidin-4-yloxy)benzofuran-2-carboxamide] the figure was 6.00 to 6.30; with `O=C(NC1CCN(Cc2ccccc2)CC1)c1cc2cc(OC3CCN(Cc4ccc(F)c(F)c4)CC3)ccc2o1` [1-74, N-(1-benzylpiperidin-4-yl)-5-(1-(3,4-difluorobenzyl)piperidin-4-yloxy)benzofuran-2-carboxamide], 6.30 to 7.00. Consider `O=C(NC1CCN(Cc2ccccc2)CC1)c1cc2cc(OC3CCN(c4ccc(C(F)(F)F)cc4)CC3)ccc2o1` [1-75, N-(1-benzylpiperidin-4-yl)-5-(1-(4-(trifluoromethyl)phenyl)piperidin-4-yloxy)benzofuran-2-carboxamide], for which the pEC50 is greater than 7.00. Take `O=C(NC1CCN(Cc2ccncc2)CC1)c1cc2cc(OC3CCN(c4ccc(C(F)(F)F)cc4)CC3)ccc2o1` [1-76, N-(1-(pyridin-4-ylmethyl)piperidin-4-yl)-5-(1-(4-(trifluoromethyl)phenyl)piperidin-4-yloxy)benzofuran-2-carboxamide]: the pEC50 was 6.30 to 7.00.

As to `O=C(NC1CCN(Cc2ccncc2)CC1)c1cc2cc(OC3CCN(Cc4ccc(Cl)cc4)CC3)ccc2o1` [1-77, 5-(1-(4-chlorobenzyl)piperidin-4-yloxy)-N-(1-(pyridin-4-ylmethyl)piperidin-4-yl)benzofuran-2-carboxamide], the pEC50 was 6.30 to 7.00. As for `O=C(NC1CCN(Cc2ccncc2)CC1)c1cc2cc(OC3CCN(c4ccc(OC(F)(F)F)cc4)CC3)ccc2o1` [1-78, N-(1-(pyridin-4-ylmethyl)piperidin-4-yl)-5-(1-(4-(trifluoromethoxy)phenyl)piperidin-4-yloxy)benzofuran-2-carboxamide], the pEC50 was greater than 7.00.

Molecule `N#Cc1ccc(CN2CCC(Oc3ccc4oc(C(=O)NC5CCN(Cc6ccncc6)CC5)cc4c3)CC2)cc1` [1-79, 5-(1-(4-cyanobenzyl)piperidin-4-yloxy)-N-(1-(pyridin-4-ylmethyl)piperidin-4-yl)benzofuran-2-carboxamide] gave a pEC50 of 6.30 to 7.00. With `O=C(NC1CCN(Cc2ccccc2)CC1)c1cc2cc(OC3CCN(c4ccc(OC(F)(F)F)cc4)CC3)ccc2o1` [1-80, N-(1-benzylpiperidin-4-yl)-5-(1-(4-(trifluoromethoxy)phenyl)piperidin-4-yloxy)benzofuran-2-carboxamide] the figure was greater than 7.00; with `CC(C)(C)OC(=O)N1CCC(NC(=O)c2cc3ccc(OC4CCN(c5ccc(OC(F)(F)F)cc5)CC4)cc3o2)CC1` [1-81, tert-butyl 4-(6-(1-(4-(trifluoromethoxy)phenyl)piperidin-4-yloxy)benzofuran-2-carboxamido)piperidine-1-carboxylate], 6.30 to 7.00. With `CC(C)(C)OC(=O)N1CCC(NC(=O)c2cc3ccc(OC4CCN(c5ccc(C(F)(F)F)cc5)CC4)cc3o2)CC1` [1-82, tert-butyl 4-(6-(1-(4-(trifluoromethyl)phenyl)piperidin-4-yloxy)benzofuran-2-carboxamido)piperidine-1-carboxylate] the figure was 6.30 to 7.00; with `O=C(NC1CCNCC1)c1cc2ccc(OC3CCN(c4ccc(OC(F)(F)F)cc4)CC3)cc2o1` [1-83, N-(piperidin-4-yl)-6-(1-(4-(trifluoromethoxy)phenyl)piperidin-4-yloxy)benzofuran-2-carboxamide], 6.30 to 7.00. With `O=C(NC1CCNCC1)c1cc2ccc(OC3CCN(c4ccc(C(F)(F)F)cc4)CC3)cc2o1` [1-84, N-(piperidin-4-yl)-6-(1-(4-(trifluoromethyl)phenyl)piperidin-4-yloxy)benzofuran-2-carboxamide] the figure was 5.00 to 5.30.

Turning to `CC(C)(C)OC(=O)N1CCC(NC(=O)c2cc3cc(OC4CCN(c5ccc(C(F)(F)F)cc5)CC4)ccc3o2)CC1` [1-85, tert-butyl 4-(5-(1-(4-(trifluoromethyl)phenyl)piperidin-4-yloxy)benzofuran-2-carboxamido)piperidine-1-carboxylate], the pEC50 is 6.00 to 6.30. For the molecule `O=C(NC1CCNCC1)c1cc2cc(OC3CCN(c4ccc(C(F)(F)F)cc4)CC3)ccc2o1` [1-86, N-(piperidin-4-yl)-5-(1-(4-(trifluoromethyl)phenyl)piperidin-4-yloxy)benzofuran-2-carboxamide], the pEC50 was less than 5.00. As for `O=C(NC1CCN(Cc2ccncc2)CC1)c1cc2ccc(OC3CCN(c4ccc(C(F)(F)F)cc4)CC3)cc2o1` [1-87, N-(1-(pyridin-4-ylmethyl)piperidin-4-yl)-6-(1-(4-(trifluoromethyl)phenyl)piperidin-4-yloxy)benzofuran-2-carboxamide], the pEC50 was greater than 7.00.

In the case of `O=C(NC1CCN(Cc2ccncc2)CC1)c1cc2ccc(OC3CCN(c4ccc(OC(F)(F)F)cc4)CC3)cc2o1` [1-88, N-(1-(pyridin-4-ylmethyl)piperidin-4-yl)-6-(1-(4-(trifluoromethoxy)phenyl)piperidin-4-yloxy)benzofuran-2-carboxamide], the pEC50 was greater than 7.00. `N#Cc1ccc(CN2CCC(NC(=O)c3cc4ccc(OC5CCN(c6ccc(OC(F)(F)F)cc6)CC5)cc4o3)CC2)cc1` [1-89, N-(1-(4-cyanobenzyl)piperidin-4-yl)-6-(1-(4-(trifluoromethoxy)phenyl)piperidin-4-yloxy)benzofuran-2-carboxamide] showed a pEC50 greater than 7.00. With `N#Cc1ccc(CN2CCC(NC(=O)c3cc4ccc(OC5CCN(c6ccc(C(F)(F)F)cc6)CC5)cc4o3)CC2)cc1` [1-90, N-(1-(4-cyanobenzyl)piperidin-4-yl)-6-(1-(4-(trifluoromethyl)phenyl)piperidin-4-yloxy)benzofuran-2-carboxamide] the figure was greater than 7.00; with `O=C(NC1CCN(Cc2ccc(F)cc2)CC1)c1cc2ccc(OC3CCN(c4ccc(C(F)(F)F)cc4)CC3)cc2o1` [1-91, N-(1-(4-fluorobenzyl)piperidin-4-yl)-6-(1-(4-(trifluoromethyl)phenyl)piperidin-4-yloxy)benzofuran-2-carboxamide], less than 5.00. In turn, `O=C(NC1CCN(Cc2ccccn2)CC1)c1cc2ccc(OC3CCN(c4ccc(OC(F)(F)F)cc4)CC3)cc2o1` [1-92, N-(1-(pyridin-2-ylmethyl)piperidin-4-yl)-6-(1-(4-(trifluoromethoxy)phenyl)piperidin-4-yloxy)benzofuran-2-carboxamide] showed a pEC50 of 6.00 to 6.30. Consider `O=C(NC1CCN(Cc2ccccn2)CC1)c1cc2ccc(OC3CCN(c4ccc(C(F)(F)F)cc4)CC3)cc2o1` [1-93, N-(1-(pyridin-2-ylmethyl)piperidin-4-yl)-6-(1-(4-(trifluoromethyl)phenyl)piperidin-4-yloxy)benzofuran-2-carboxamide], for which the pEC50 was 6.30 to 7.00. `O=C(NC1CCN(Cc2ccc(F)cc2)CC1)c1cc2ccc(OC3CCN(c4ccc(OC(F)(F)F)cc4)CC3)cc2o1` [1-94, N-(1-(4-fluorobenzyl)piperidin-4-yl)-6-(1-(4-(trifluoromethoxy)phenyl)piperidin-4-yloxy)benzofuran-2-carboxamide] showed a pEC50 greater than 7.00. With `O=C(NC1CCN(Cc2cccnc2)CC1)c1cc2ccc(OC3CCN(c4ccc(OC(F)(F)F)cc4)CC3)cc2o1` [1-95, N-(1-(pyridin-3-ylmethyl)piperidin-4-yl)-6-(1-(4-(trifluoromethoxy)phenyl)piperidin-4-yloxy)benzofuran-2-carboxamide] the figure was greater than 7.00; with `O=C(NC1CCN(Cc2cccnc2)CC1)c1cc2ccc(OC3CCN(c4ccc(C(F)(F)F)cc4)CC3)cc2o1` [1-96, N-(1-(pyridin-3-ylmethyl)piperidin-4-yl)-6-(1-(4-(trifluoromethyl)phenyl)piperidin-4-yloxy)benzofuran-2-carboxamide], greater than 7.00. `N#Cc1ccccc1CN1CCC(NC(=O)c2cc3ccc(OC4CCN(c5ccc(OC(F)(F)F)cc5)CC4)cc3o2)CC1` [1-97, N-(1-(2-cyanobenzyl)piperidin-4-yl)-6-(1-(4-(trifluoromethoxy)phenyl)piperidin-4-yloxy)benzofuran-2-carboxamide]: the pEC50 is greater than 7.00.

Broadly, the pEC50 is −log10 of the EC50, conventionally taken in molar units. A lower pEC50 goes with a high EC50.

The values are drawn from patent US9511058B2, “Methods for using carboxamide, sulfonamide and amine compounds” (Rigel Pharmaceuticals, Inc., priority 2010, dated 2016).
